Test results from patent US20230331679A1, “NAPHTHALENE MONOIMIDE COMPOUNDS AND METHODS THEREOF” (JAWAHARLAL NEHRU CENTRE FOR ADVANCED SCIENTIFIC RESEARCH, priority 2020, published 2023).

Tests used:
Aβ42 = target: T1, Aβ42 (Homo sapiens, UniProt P05067); test: ThT binding assay, inhibition of Aβ42 fibrillar assembly; format: biochemical
T1 construct: commercially available β-amyloid peptide (1-42), human; purchased marck (so in the source) PP69-.025 mg
Experimental: Monomeric form of Aβ42 peptide was prepared by dissolving 0.25 mg of commercially available β-amyloid peptide (1-42), human (cat: PP69-.025 mg), marck peptide in 250 µL of hexafluoro-2-propanol (HFIP) solvent to obtain a Aβ42 solution. This solution was incubated at room temperature for 1 hour, further to which the HFIP solvent was removed by nitrogen gas flow to obtain the monomeric Aβ42 peptide. To prepare a fibrillar sample of Aβ42 peptide, 0.025 mg of Aβ42 peptide was dissolved in […] of PBS buffer (pH = 7.4; contains 2% of DMSO or 100 mM NaOH) to obtain a monomeric Aβ42 solution and the peptide concentration in this solution was calculated through UV-Visible absorbance studies (ε = 1450 cm^-1 M^-1). The Aβ42 monomeric solution was incubated for 5 days in PBS buffer (pH = 7.4) to allow for the full phase formation of Aβ42 fibrils. The presence of Aβ42 fibrils was further confirmed by ThT assay.
Initially, the ability of the prepared NMI compounds, TGR63-68 to inhibit Aβ42 fibrillar assembly at 1:1 molar ratio with Aβ42 fibrils was evaluated using thioflavin (ThT) binding assay. 10 µM of Aβ42 fibrils in the absence (Ctrl) and the presence of 10 µM of inhibitors individually were incubated for 72 h. A normalized data for fluorescence intensity (NFI) of ThT at 482 nm (λex = 442 nm) was measured as represented in FIG. 1(a).
The ability of NMI compounds (TGR63, TGR64 and TGR65) to prevent Aβ42 fibrillar assembly (inhibition) and to break down the preformed fibrils (dissolution) was evaluated using thioflavin (ThT) binding assay. Aβ42 fibrils at a concentration of 10 µM and its aggregates, were used to study the effect of NMI compounds (TGR63, TGR64 and TGR65) at varying concentrations on both inhibition and dissolution assays. For the inhibition assay, all the NMI compounds (TGR63, TGR64 and TGR65) were added independently to Aβ peptide (10 µM) at 0 h of the experiment, whereas for the aggregates dissolution assay they were added to Aβ42 fibrillar aggregates grown for 2 days. Upon incubating for a predetermined period, Aβ42 inhibitor samples were analyzed using ThT by measuring the fluorescence change at 485 nm as presented in FIG. 1(b) and FIG. 1(c), wherein the error bars represent the standard deviation (SD) of the fluorescence measurement. Fluorescence values were normalized to maximal fluorescence intensity at 485 nm compared to that of the control (Aβ42 with no inhibitor). Experiments were performed at various stoichiometric ratios (Aβ42/inhibitor) of 1:1, 1:2, and 1:5 with a fixed concentration of Aβ42 at 10 µM. Each experiment was repeated three times (n = 3). […] TGR 63 recorded 80% dissolution efficiency while TGR 64 and TGR 65 recorded 75% and 78% dissolution efficiency respectively, for the stoichiometric ratio of 1:5.

[1] = MALDI mass analysis of brain lysate (BBB crossing); format: in vivo; conditions: WT mice, brains collected after 1 h
Experimental: Pharmacokinetics of TGR63 in wild-type (WT) mice was performed to assess its in vivo efficacy. The lethal dose 50 (LD50) of TGR63 was determined in WT mice through intraperitoneal (IP) injection following the Organisation for Economic Cooperation and Development (OECD) guidelines. […] FIG. 7A illustrates the calculation of lethal dose 50% (LD50) of TGR63 through intraperitoneal administration and is represented as table of experimental details and the final observation was done on 14th day. FIG. 7B illustrates the mortality (%) plotted against TGR63 concentration and calculation of LD50. Twenty-five WT mice were segregated in five different groups (G1-5, N= 5 per group) and administered with varying doses of TGR63 (1.7, 5.5, 17.5 56.0 and 179.0 mg/kg body weight, respectively) through IP injection and their survival was monitored for 14 days. The serum stability and blood-brain barrier (BBB) crossing ability of TGR63 were assessed through matrix-assisted laser desorption ionization (MALDI) mass spectrometry analysis of blood and brain samples of vehicle and TGR63 treated mice. […] The partition coefficient (P), a valuable physical property was calculated to predict the BBB permeability. […] The calculated positive logP value predicts the possible BBB crossing ability for TGR63. […]

T1 sequence (P05067 672-713 limits assumed): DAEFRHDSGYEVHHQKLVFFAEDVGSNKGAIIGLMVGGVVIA

With `CN(C)c1ccc(C#Cc2ccc3c4c(cccc24)C(=O)N(CC[N+](C)(C)C)C3=O)cc1` [TGR63, 2-(6-((4-(dimethylamino)phenyl)ethynyl)-1,3-dioxo-1H-benzo[de]isoquinolin-2(3H)-yl)-N,N,N-trimethylethan-1-aminium] as the compound, how does the “inhibitory effect on Aβ42 aggregation (ThT NFI at 482 nm)” value (Aβ42; 1:1 molar ratio, 10 µM Aβ42, 10 µM inhibitor, 72 h) read?
Its value is ~ 45%.

What about the “decrease in the formation of Aβ aggregates” value (Aβ42; Aβ42/inhibitor 1:1, Aβ42 10 µM, third day of incubation) of the same compound?
Its value is ~ 50%.

What about the “Aβ aggregation decreased to” value (Aβ42; Aβ42/inhibitor 1:2, Aβ42 10 µM, third day of incubation) of the same compound?
The value was 75%.

And the “Aβ aggregation decreased to” value (Aβ42; Aβ42/inhibitor 1:5, Aβ42 10 µM, third day of incubation)?
Its value is 90%.

What about the “BBB crossing ability (MALDI of brain lysate)” value [1] of the same compound?
The value was “confirmed BBB crossing ability of TGR63”.
